Data taken from patent publication US5098933A, “Pharmaceutically useful Michael addition products of unsaturated aldehydes and ketones and ascorbic acid” (Theracel Corporation, priority 1990, dated 1992).

Key:
interleukin-2 = experiment: Immunomodulation panel: In vitro production of interleukin-2 (CTLL2 bioassay); format: in vivo, C57BL/6J mice
Source text: The bioassay uses the IL-2 growth-dependent cell line, CTLL2 as the indicator cell line to quantitate IL-2 in a biological fluid. The assay utilizes tritiated thymidine uptake by these cells as a measure of cellular proliferation. A reference standard obtained from the NCI Biological Response Modifiers Program is employed to construct a standard curve and to calculate Half Maximal Units (HMU) activity per ml. The assay was modified from one reported by Gillis et al. (J. Immunol. 120: 2927, 1978) and was recently reviewed as a clinical bioassay (Shalaby and Pallidino, In: Manual of Clinical Laboratory Immunology, 3rd Ed., p 300, American Society for Microbiology, Washington, D.C.).
2. Each sample is assayed in triplicate, over dilutions of 1/2, 1/4, 1/8, and 1/16 in a 96 well flat bottom plate. A totoal of eight (8) samples may be assayed in a single 96 well plate.
Analysis: Values are obtained from counter as counts per minute (cpm). The average of each triplicate sample dilution count is calculated. A standard curve of known half maximal units of the IL-2 standard dilution/cpm is constructed using a PC program for generation of the least squares line of best fit. IL-2 values are thus assessed for each sample based upon the standard curve and reported.
Daily intraperitoneal injections of KCPBL were administered to normal animals and immunological responsiveness to mitogens and specific antigen evaluated.
Doses and schedule--Doses were selected to bracket the range generally known to be immunostimulatory in past experiments, 1, 10, and […] daily for four days.
As an assessment of immunopathology in the above screening test panel, the cellularity of the spleen was evaluated by determination of the total number of splenocytes harvested. Humoral-mediated immunity was measured by enumerating IgM plaque-forming cells to the T-dependent antigen sheep erythrocytes. Cell-mediated immunity was evaluated as described above by determination of the ability of the splenocytes to produce the lymphokine interleukin-2 in response to stimulation by the mitogen concanavalin-A. Another measurement of cell-mediated immunity was the responsiveness of the splenic lymphocytes to the mitogens concanavalin-A (Con-A); phytohemagglutinin (PHA) and pokeweed mitogen (PWM) in the lymphocyte blastogenesis assay. In the latter test, the activation and proliferation of the lymphocytes to the mitogens represents the capability of the cells to sequentially pass from G0 to G1 and the S phse of the cell cycle. The responsiveness of the cells was measured by the uptake of radiolabeled 14C-thymidine.

CD-1 male mice = experiment: Oral Toxicity, single high dose in mice; format: in vivo; settings: 5000 mg/kg p.o., 14 days
Experimental: The objective of this experiment was to observe the clinical effects associated with the peroral administration of a single high dose of KCPBL to mice.
The test animals were CD-1 male mice.
Nine animals constituted the active peroral treatment group; eight animals were used in the vehicle control group.
Each mouse received a single 0.2 ml peroral (p.o.) dose using a 1.0 cc syringe fitted with a curved gavage needle.
Survival statistics were determined after the fourteenth day. All surviving mice were sacrificed on the fifteenth day, selected organs removed and weighed on a AE 100 Mettler balance and then fixed in formalin for histopathologic examination.

splenic lymphocytes = experiment: Immunomodulation panel: lymphocyte blastogenesis (Con-A, PHA, PWM); format: in vivo, C57BL/6J mice; settings: 100 mg/kg i.p.
splenocytes = experiment: Immunotoxicity--Multi-dose: total spleen cell counts (Coulter Counter); format: in vivo, mice
Experimental: The immunotoxicological potential of KCPBL was evaluated in this experiment in which the study drug was administered to CD-1 mice for fourteen days (100 or 1000 mg/kg/day), either perorally (by gavage) or intravenously (tail vein). On the fifteenth day, the mice were weighed and sacrificed. The spleen, lungs, liver, kidneys and thymus were removed from each animal, fixed in formalin and histopathologically evaluated. In addition, a differential white blood cell count was obtained for a peripheral blood sample as well as the following tests performed: spleen cell counts (performed with Coulter Counter) and lymphocyte stimulation assays using PHA, CON-A and PWM techniques.
The study incorporated five treatment groups into its design: group 1, sham intravenous control; group 2, 100 mg/kg/day perorally; group 3, 1000 mg/kg/day intravenously; group 4, […], and, group 5, 100 mg/kg/day intravenously. Mice were administered KCPBL daily for a total of fourteen days via the oral (0.2 ml of a 147.5 mg/ml solution or a 29.5 mg/ml solution by gavage) and intravenous route (0.2 ml of 147.5 mg/ml solution or a 29.5 mg/ml solution by tail vein) to achieve a dose of 100 or 1000 mg/kg, respectively. The test dose was prepared fresh daily and dissolved in sterile non-pyrogenic saline. On the fifteenth day the mice were weighed, sacrificed, and the spleens, lungs, livers, kidneys and thymuses removed. These organs were weighed and, except for the spleens, the formalin-fixed organs were analyzed by a veterinary pathologist. Only two randomly-selected sets of animal organs per treatment group were histopathologically evaluated since the remaining three animals were used to isolate splenic lymphocytes for use in cellular immunoassays.
A leukocyte differential was obtained on peripheral blood samples and spleen cell counts (performed with Coulter Counter), and an IL-2 induction assessment as well as standard lymphocyte stimulation assays using PHA, CON-A and PWM conducted.

## O=C1CCC(C2(O)C(=O)OC3C(O)COC32O)C1 (stereo not shown) [KCPBL]
interleukin-2; 1.0 mg/kg i.p.
  IL-2 Half Maximal Units: 4.48 ± 1.5 Half Maximal Units [10^6 Cells
interleukin-2; 10 mg/kg i.p.
  IL-2 Half Maximal Units: 4.33 ± 1.4 Half Maximal Units [10^6 Cells
interleukin-2; 100 mg/kg i.p.
  IL-2 Half Maximal Units: 4.14 ± 1.3 Half Maximal Units [10^6 Cells
interleukin-2; drug-treated animals
  IL-2 production vs controls: produced significantly more IL-2 than controls
CD-1 male mice
  deaths: One mouse in the KCPBL group died on the 12th day
CD-1 male mice; listed as BL-012
  deaths: Only one animal died
Splenic lymphocytes
  Lymphocyte Blastogenesis, PHA: 5849 ± 1227 Counts per minute
  Lymphocyte Blastogenesis, RPMI: 83 ± 35 Counts per minute
splenocytes; 100 mg/kg IV (group 5)
  Total Splenocytes: 4.03 ± 0.33 × 10^7 Cells
splenocytes; 100 mg/kg P.O. (group 4)
  Total Splenocytes: 4.15 ± 0.18 × 10^7 Cells
splenocytes; 1000 mg/kg IV (group 3)
  Total Splenocytes: 3.12 ± 0.67 × 10^7 Cells
splenocytes; 1000 mg/kg P.O. (group 2)
  Total Splenocytes: 3.73 ± 0.30 × 10^7 Cells
splenocytes; treated vs control
  total spleen cell counts, significance: not statistically significantly different
